Laboratory results: paper PMC9284491 (Nature Communications, 2022)

Assay: Treatment-emergent adverse events (MedDRA, NCI-CTCAE v4.03), safety populations
Assay type: in vivo, human
Details: Part B, 400 mg QD (N = 49)
Method: Overall safety in Parts A and B was assessed by tabulating TEAEs, coded using the Medical Dictionary for Regulatory Activities (MedDRA) version 22.1, and graded according to NCI-CTCAE v4.03 criteria. TEAEs were classified as related or unrelated to amcenestrant therapy based upon the local investigating physician’s clinical judgment. The safety population included all patients exposed to at least one dose of the study treatment. Results were analyzed using descriptive statistics.

With O=C(O)c1ccc2c(c1)CCCC(c1ccc(Cl)cc1Cl)=C2c1ccc(O[C@H]2CCN(CCCF)C2)cc1 [amcenestrant, 6-(2,4-Dichlorophenyl)−5-[4-[(3S)−1-(3-fluoropropyl)pyrrolidin-3-yl]oxyphenyl]−8,9-dihydro-7H-benzo[7]annulene-2-carboxylic acid] the “Back pain, TEAEs, All grades” value was 5 (10.2) n (%), the “Back pain, TEAEs, Grade 1” value was 3 (6.1) n (%) and the “Back pain, TEAEs, Grade 2” value was 2 (4.1) n (%). The “Back pain, TEAEs, Grade ≥3” value was 0 n (%), the “Back pain, Treatment-related TEAEs, All Grades” value was 0 n (%) and the “Back pain, Treatment-related TEAEs, Grade 1” value was 0 n (%). For the same compound, the “Back pain, Treatment-related TEAEs, Grade 2” value was 0 n (%), the “Back pain, Treatment-related TEAEs, Grade ≥3” value was 0 n (%) and the “Constipation, TEAEs, All grades” value was 14 (28.6) n (%). For the same compound, the “Constipation, TEAEs, Grade 1” value was 12 (24.5) n (%), the “Constipation, TEAEs, Grade 2” value was 2 (4.1) n (%) and the “Constipation, TEAEs, Grade ≥3” value was 0 n (%). For the same compound, the “Constipation, Treatment-related TEAEs, All Grades” value was 3 (6.1) n (%), the “Constipation, Treatment-related TEAEs, Grade 1” value was 2 (4.1) n (%) and the “Constipation, Treatment-related TEAEs, Grade 2” value was 1 (2.0) n (%). The “Constipation, Treatment-related TEAEs, Grade ≥3” value was 0 n (%), the “Cough, TEAEs, All grades” value was 4 (8.2) n (%) and the “Cough, TEAEs, Grade 1” value was 4 (8.2) n (%). The “Cough, TEAEs, Grade 2” value was 0 n (%), the “Cough, TEAEs, Grade ≥3” value was 0 n (%) and the “Cough, Treatment-related TEAEs, All Grades” value was 1 (2.0) n (%). For the same compound, the “Cough, Treatment-related TEAEs, Grade 1” value was 1 (2.0) n (%), the “Cough, Treatment-related TEAEs, Grade 2” value was 0 n (%) and the “Cough, Treatment-related TEAEs, Grade ≥3” value was 0 n (%). The “Decreased appetite, TEAEs, All grades” value was 7 (14.3) n (%), the “Decreased appetite, TEAEs, Grade 1” value was 5 (10.2) n (%) and the “Decreased appetite, TEAEs, Grade 2” value was 2 (4.1) n (%). The “Decreased appetite, TEAEs, Grade ≥3” value was 0 n (%), the “Decreased appetite, Treatment-related TEAEs, All Grades” value was 2 (4.1) n (%) and the “Decreased appetite, Treatment-related TEAEs, Grade 1” value was 2 (4.1) n (%). For the same compound, the “Decreased appetite, Treatment-related TEAEs, Grade 2” value was 0 n (%), the “Decreased appetite, Treatment-related TEAEs, Grade ≥3” value was 0 n (%) and the “Depression, TEAEs, All grades” value was 3 (6.1) n (%). The “Depression, TEAEs, Grade 1” value was 3 (6.1) n (%), the “Depression, TEAEs, Grade 2” value was 0 n (%) and the “Depression, TEAEs, Grade ≥3” value was 0 n (%). The “Depression, Treatment-related TEAEs, All Grades” value was 2 (4.1) n (%), the “Depression, Treatment-related TEAEs, Grade 1” value was 2 (4.1) n (%) and the “Depression, Treatment-related TEAEs, Grade 2” value was 0 n (%). The “Depression, Treatment-related TEAEs, Grade ≥3” value was 0 n (%), the “Diarrhea, TEAEs, All grades” value was 8 (16.3) n (%) and the “Diarrhea, TEAEs, Grade 1” value was 5 (10.2) n (%). For the same compound, the “Diarrhea, TEAEs, Grade 2” value was 2 (4.1) n (%), the “Diarrhea, TEAEs, Grade ≥3” value was 1 (2.0) n (%) and the “Diarrhea, Treatment-related TEAEs, All Grades” value was 1 (2.0) n (%). For the same compound, the “Diarrhea, Treatment-related TEAEs, Grade 1” value was 1 (2.0) n (%), the “Diarrhea, Treatment-related TEAEs, Grade 2” value was 0 n (%) and the “Diarrhea, Treatment-related TEAEs, Grade ≥3” value was 0 n (%). For the same compound, the “Dry skin, TEAEs, All grades” value was 3 (6.1) n (%), the “Dry skin, TEAEs, Grade 1” value was 2 (4.1) n (%) and the “Dry skin, TEAEs, Grade 2” value was 1 (2.0) n (%). For the same compound, the “Dry skin, TEAEs, Grade ≥3” value was 0 n (%), the “Dry skin, Treatment-related TEAEs, All Grades” value was 1 (2.0) n (%) and the “Dry skin, Treatment-related TEAEs, Grade 1” value was 1 (2.0) n (%). The “Dry skin, Treatment-related TEAEs, Grade 2” value was 0 n (%), the “Dry skin, Treatment-related TEAEs, Grade ≥3” value was 0 n (%) and the “Dyspnea, TEAEs, All grades” value was 8 (16.3) n (%). The “Dyspnea, TEAEs, Grade 1” value was 6 (12.2) n (%), the “Dyspnea, TEAEs, Grade 2” value was 2 (4.1) n (%) and the “Dyspnea, TEAEs, Grade ≥3” value was 0 n (%). The “Dyspnea, Treatment-related TEAEs, All Grades” value was 1 (2.0) n (%), the “Dyspnea, Treatment-related TEAEs, Grade 1” value was 1 (2.0) n (%) and the “Dyspnea, Treatment-related TEAEs, Grade 2” value was 0 n (%). The “Dyspnea, Treatment-related TEAEs, Grade ≥3” value was 0 n (%), the “Edema peripheral, TEAEs, All grades” value was 3 (6.1) n (%) and the “Edema peripheral, TEAEs, Grade 1” value was 3 (6.1) n (%). The “Edema peripheral, TEAEs, Grade 2” value was 0 n (%), the “Edema peripheral, TEAEs, Grade ≥3” value was 0 n (%) and the “Edema peripheral, Treatment-related TEAEs, All Grades” value was 1 (2.0) n (%). The “Edema peripheral, Treatment-related TEAEs, Grade 1” value was 1 (2.0) n (%), the “Edema peripheral, Treatment-related TEAEs, Grade 2” value was 0 n (%) and the “Edema peripheral, Treatment-related TEAEs, Grade ≥3” value was 0 n (%). The “Fatigue, TEAEs, All grades” value was 12 (24.5) n (%), the “Fatigue, TEAEs, Grade 1” value was 8 (16.3) n (%) and the “Fatigue, TEAEs, Grade 2” value was 2 (4.1) n (%). For the same compound, the “Fatigue, TEAEs, Grade ≥3” value was 2 (4.1) n (%), the “Fatigue, Treatment-related TEAEs, All Grades” value was 2 (4.1) n (%) and the “Fatigue, Treatment-related TEAEs, Grade 1” value was 2 (4.1) n (%). The “Fatigue, Treatment-related TEAEs, Grade 2” value was 0 n (%), the “Fatigue, Treatment-related TEAEs, Grade ≥3” value was 0 n (%) and the “Gastroesophageal reflux disease, TEAEs, All grades” value was 4 (8.2) n (%). The “Gastroesophageal reflux disease, TEAEs, Grade 1” value was 4 (8.2) n (%), the “Gastroesophageal reflux disease, TEAEs, Grade 2” value was 0 n (%) and the “Gastroesophageal reflux disease, TEAEs, Grade ≥3” value was 0 n (%). The “Gastroesophageal reflux disease, Treatment-related TEAEs, All Grades” value was 3 (6.1) n (%), the “Gastroesophageal reflux disease, Treatment-related TEAEs, Grade 1” value was 3 (6.1) n (%) and the “Gastroesophageal reflux disease, Treatment-related TEAEs, Grade 2” value was 0 n (%). The “Gastroesophageal reflux disease, Treatment-related TEAEs, Grade ≥3” value was 0 n (%), the “Headache, TEAEs, All grades” value was 3 (6.1) n (%) and the “Headache, TEAEs, Grade 1” value was 3 (6.1) n (%). For the same compound, the “Headache, TEAEs, Grade 2” value was 0 n (%) and the “Headache, TEAEs, Grade ≥3” value was 0 n (%).
